The values that follow come from patent US12263177B2, “Biologically active ganoderma lucidum compounds and synthesis of anticancer derivatives; ergosterol peroxide probes for cellular localization” (priority 2019, dated 2025).

Read-outs that look alike come from different tables or passages of the source.

The test system of one series is HMEC. In words: Cytotoxicity of EP probes via CTG assay, normal cells. Particulars: 72 hr. Format: cell-based.
Series [1] has as its system MDA-MB-231, SUM-149, T47D. Briefly: Cytotoxicity of EP analogues via CTG assay, comparison across cell lines. The conditions noted are these: 72 hr. The protocol:
To better understand the structure-activity-relationship of EP, its core was modified at the C3 position of the steroid backbone. […] Both normal cell lines HMEC and BJ cells were also evaluated to determine therapeutic index.
(§1) Either 1×10^3-4.8×10^3 or 4×10^2-1.2×10^3 cells were seeded to each well of 96- or 384-well white polystyrene flat-bottomed plates (3610 or 8804BC, Corning) in 100 μL or 30 μL media per well, respectively. The concentrations used were experimentally determined to ensure logarithmic growth during the duration of the experiment and prevent adverse effects on cell growth by DMSO exposure. The plates were incubated at 37° C. in 5% CO2 for 24 h before treatment. Stock solutions of test compounds (10 mM in DMSO) in nine 3-fold serial dilutions were dispensed via pintool (Biomek). The final concentration of DMSO was 0.3% (v/v) in each well. The plates were incubated for 72 h at 37° C. in 5% CO2 and then quenched with CellTiter-Glo® reagent (50 μL/well in 96-well plate, 30 μL/well in 384-well plate) at RT. The positive controls included staurosporine (10 μM), gambogic acid (10 μM), and a toxic quinoline generated in-house. Plates were then incubated at RT for 20 min and centrifuged at 1000 rpm for 1 min. The cytotoxicity assay was performed by using the CellTiterGlo Luminescent Cell Viability Assay kit (G7570, Promega, Madison, WI) according to the manufacturer's instructions. Luminescence was recorded in an Envision plate reader (Perkin Elmer).

The subject of another series is T47D. In words: Cytotoxicity of EP probes via CTG assay. Format: cell-based. Particulars: 72 hr.
The test system of another series is SUM-149. Briefly: Cytotoxicity of EP probes via CTG assay. Format: cell-based, human.
The next series concerns MDA-MB-231. Briefly: Cytotoxicity of EP probes via CTG assay. Format: cell-based, human. Particulars: read-out: MDA-MB231 EC50.
Another series is described as follows: Solubility observations. Format: physicochemical. The conditions noted are these: DMSO. The protocol:
One of the liabilities with EP is sharing its core with cholesterol, an amphipathic molecule with part-water soluble, part-water insoluble character. Thus, while able to readily cross the cell membrane, the ability to deliver the pure compound faces challenges. EP's solubility properties are poor in DMSO or water unless warmed up to 30° C. However, in this report, EP's derivative, EP sulfonamide, was soluble at 10 mM in DMSO. Thus, the generation of a selective anti-cancer compound with greater potency than EP, and ample therapeutic window when compared to BJ normal cells, was accomplished.

The subject of the next series is SUM-149 cells. Briefly: Cell viability assay (CellTiter-Glo or PI staining). Format: cell-based, human. A general note: ATP-based viability assays read luminescence as a measure of living cells.
The test system of another series is BJ cells. In words: Cell viability assay in normal fibroblasts. Particulars: at the concentrations tested. The protocol:
The compounds' activity was also evaluated in human and murine leukemia (KOPN8, BCR-ABL, UoCB-1, SUP-B15, NALM06) cell lines. As a control, normal human skin fibroblasts (BJ) cells and non-cancerous mammary epithelial cells (MCF10A) were used.
Different concentrations of GLE-extracted bioactive chemical components were tested for 72-h treatment periods.
as §1, with “The cytotoxicity assay was performed by using the CellTiterGlo Luminescent Cell Viability Assay kit (G7570, Promega, Madison, WI) according to the manufacturer's instructions.” left out
For the CTG assay, 3 or 4 replicate assays were conducted for each experimental condition, and a minimum of 3 independent experiments were conducted for cellular assays. The mean luminescence of each experimental treatment group was normalized as a percentage of the mean intensity of untreated controls. EC50 values (μM) were calculated by Pipeline Pilot Software (Accelrys, Enterprise Platform, CA, USA). EC50 values (μM) from the viability assay were calculated from dose response curve-fitting via non-linear regression by using GraphPad Prism (Version 7.0 San Diego, CA). […]

In series [2] the test system is various breast cancer cell lines. Briefly: Cell viability assay, breast cancer cell line panel. Format: cell-based.
Where [3] appears, read: Homo sapiens, MDA-MB-231, 72 hr.

By EC50 is commonly meant the concentration that produces a half-maximal response. `CC(C)C(C)C=CC(C)C1CCC2C1(C)CCC1C23C=CC2(CC(=O)CCC12C)OO3` (stereo not shown) [3a]: the EC50 in the series with HMEC was greater than 13 µM; in the series with T47D, 10 µM; in the series with SUM-149 (72 hr, read-out: SUM149 EC50), 5 µM; in the series on MDA-MB-231 (72 hr) it was 7 µM. Also, in [1], the “cytotoxicity compared with parental compound 3 (in words)” value is “improved activity”.

As to `CC(C)C(C)C=CC(C)C1CCC2C1(C)CCC1C23C=CC2(CC(OC(=O)CCl)CCC12C)OO3` (stereo not shown) [3c], the 50% effective concentration (EC50) was greater than 20 µM in the series with HMEC; greater than 20 µM with T47D; 5 µM in the series with SUM-149 (72 hr, read-out: SUM149 EC50); greater than 20 µM in the series on MDA-MB-231 (72 hr). Further, the “cytotoxicity compared with parental compound 3 (in words)” value in [1] was “promising activity against SUM-149 with little or no activity observed at the tested concentrations in MDA-MB-231 and T47D”.

With `CC(C)C(C)C=CC(C)C1CCC2C1(C)CCC1C23C=CC2(CC(OC(=O)CN=[N+]=[N-])CCC12C)OO3` (stereo not shown) [3d], the 50% effective concentration (EC50) with HMEC is greater than 20 µM; in the series with T47D, greater than 20 µM; with SUM-149 (72 hr, read-out: SUM149 EC50), 10 µM; in the series with MDA-MB-231 (72 hr) it was greater than 20 µM. For the same molecule, the “cytotoxicity compared with parental compound 3 (in words)” value in [1] is “promising activity against SUM-149 with little or no activity observed at the tested concentrations in MDA-MB-231 and T47D”.

As for `C#CCOC1CCC2(C)C3CCC4(C)C(C(C)C=CC(C)C(C)C)CCC4C34C=CC2(C1)OO4` (stereo not shown) [3e], the EC50 in the series with HMEC was greater than 20 µM; in the series on T47D it was greater than 20 µM; in the series with SUM-149 (72 hr, read-out: SUM149 EC50), 10 µM; with MDA-MB-231 (72 hr) it was 16 µM. Also, the “cytotoxicity compared with parental compound 3 (in words)” value in series [1] is “better activity”.

Consider `CCOP(=O)(COC1CCC2(C)C3CCC4(C)C(C(C)C=CC(C)C(C)C)CCC4C34C=CC2(C1)OO4)OCC` (stereo not shown) [3f], for which the EC50 with HMEC was greater than 20 µM; with T47D it was greater than 20 µM; in the series with SUM-149 (72 hr, read-out: SUM149 EC50) it was 5 µM; in the series on MDA-MB-231 (72 hr), 9 µM. Further, the “cytotoxicity compared with parental compound 3 (in words)” value in series [1] was “improved activity”.

Turning to `CC(C)C(C)C=CC(C)C1CCC2C1(C)CCC1C23C=CC2(CC(OCP(=O)(O)O)CCC12C)OO3` (stereo not shown) [3g], the EC50 in the series with HMEC was greater than 20 µM; in the series with T47D it was greater than 20 µM; in the series with SUM-149 (72 hr, read-out: SUM149 EC50) it was 5 µM; in the series on MDA-MB-231 (72 hr) it was 37 µM. For the same molecule, the “cytotoxicity compared with parental compound 3 (in words)” value in series [1] is “poor activity”.

For `CC(C)C(C)C=CC(C)C1CCC2C1(C)CCC1C23C=CC2(CC(OP(=O)([O-])OCC[N+](C)(C)C)CCC12C)OO3` (stereo not shown) [3h], the EC50 in the series on HMEC is greater than 20 µM; in the series with T47D it was 17 µM; in the series with SUM-149 (72 hr, read-out: SUM149 EC50), 21 µM; in the series with MDA-MB-231 (72 hr), 25 µM. In addition, the “cytotoxicity compared with parental compound 3 (in words)” value in series [1] is recorded as “poor activity”.

As for `CC(C)C(C)C=CC(C)C1CCC2C1(C)CCC1C23C=CC2(CC(OC(=O)CCCC(=O)O)CCC12C)OO3` (stereo not shown) [3i], the concentration giving a half-maximal response (EC50) is greater than 20 µM in the series with HMEC; 18 µM in the series with T47D; 5 µM with SUM-149 (72 hr, read-out: SUM149 EC50); 33 µM in the series with MDA-MB-231 (72 hr). The “cytotoxicity compared with parental compound 3 (in words)” value in [1] is recorded as “poor activity”.

Turning to `C#CCCCC(=O)OC1CCC2(C)C3CCC4(C)C(C(C)C=CC(C)C(C)C)CCC4C34C=CC2(C1)OO4` (stereo not shown) [3j], the EC50 in the series on HMEC is greater than 13 µM; in the series on T47D, 11 µM; in the series with SUM-149 (72 hr, read-out: SUM149 EC50) it was 4 µM; in the series with MDA-MB-231 (72 hr), 8 µM. For the same molecule, the “cytotoxicity compared with parental compound 3 (in words)” value in series [1] was “superior activity across cell lines”.

As for `CC(C)C(C)C=CC(C)C1CCC2C1(C)CCC1C23C=CC2(CC(OC(=O)Cn4cc(CNC(=O)c5ccc6c(c5)C(=O)OC65c6ccc(N(C)C)cc6Oc6cc(N(C)C)ccc65)nn4)CCC12C)OO3` (stereo not shown) [3l], the EC50 in the series on HMEC is greater than 20 µM; in the series with T47D it was greater than 20 µM; in the series on SUM-149 (72 hr, read-out: SUM149 EC50) it was 18 µM; with MDA-MB-231 (72 hr) it was 20 µM. Further, the “solubility properties (in words)” value in the series “Solubility observations” (water or PBS) was “poor solubility properties and precipitated readily in DMSO or PBS”.

Regarding `CCCCCOC(=O)Nc1nc(=O)n([C@@H]2O[C@H](C)[C@@H](O)[C@H]2O)cc1F` [Capecitabin, reference compound], the concentration for a half-maximal effect (EC50) in the series with HMEC came to 10 µM; in the series on SUM-149 (72 hr, read-out: SUM149 EC50) it was 5 µM; in the series on MDA-MB-231 (72 hr) it was 5 µM.

On to `COc1cccc2c1C(=O)c1c(O)c3c(c(O)c1C2=O)C[C@@](O)(C(=O)CO)C[C@@H]3O[C@H]1C[C@H](N)[C@H](O)[C@H](C)O1` [Doxorubicin, reference compound], for which the concentration for a half-maximal effect (EC50) is greater than 10 µM in the series with HMEC (Homo sapiens, HMEC); 1 µM with SUM-149 (Homo sapiens, SUM149, 72 hr); 1 µM in the series on MDA-MB-231 (setting [3]).

As to `CC(C)C(C)C=CC(C)C1CCC2C1(C)CCC1C23C=CC2(CC(OC(=O)NS(=O)(=O)c4ccccc4)CCC12C)OO3` (stereo not shown) [EP sulfonamide, ergosterol peroxide sulfonamide], the concentration giving a half-maximal response (EC50) in the series on SUM-149 cells (FIG. 10A, SUM-149 breast cancer cells, read-out: EC50, cancer cell viability of derivative) worked out at 12 µM. Moreover, the “solubility in DMSO” value in “Solubility observations” is no less than 10 mM. The “cytotoxic effects in normal BJ cells” value in the series with BJ cells is “minimal”.

Take `CC(=O)O[C@H]1C(=O)[C@@]2(C)[C@H]([C@H](OC(=O)c3ccccc3)[C@]3(O)C[C@H](OC(=O)[C@H](O)[C@@H](NC(=O)c4ccccc4)c4ccccc4)C(C)=C1C3(C)C)[C@]1(OC(C)=O)CO[C@@H]1C[C@@H]2O` [Taxol, reference compound]: the 50% effective concentration (EC50) in the series on HMEC (Homo sapiens, HMEC) is greater than 10 µM; in the series with SUM-149 (Homo sapiens, SUM149, 72 hr), 0.01 µM; with MDA-MB-231 (setting [3]), 2 µM.

On to `CC(C)[C@@H](C)/C=C/[C@@H](C)[C@H]1CC[C@H]2C3=CC=C4C[C@@H](O)CC[C@]4(C)[C@H]3CC[C@]12C` [ergosterol], for which, in the series with SUM-149 cells (72 h), the “concentration at which SUM-149 cell viability is significantly reduced” value was 64 µM. For the same molecule, the “cytotoxic effects in normal BJ cells” value in the series with BJ cells is “did not induce cytotoxic effects”. For the same molecule, in [2] (72-h treatment), the concentration for a half-maximal effect (EC50) is greater than 50 µM. Besides, the “cancer cell viability significantly reduced starting at” value in series [2] (breast cancer cellular models, 72-h) is 64 µM.

As for `CCCCCCCCCCCCCCCC(=O)O` [palmitic acid], the “activity at the tested concentrations in the evaluated cell lines” value in [2] is “did not show activity”.
